Read-outs that look alike come from different tables or passages of the source.
Columns and labels:
[1] = biological target: T1, human GPR18 (Homo sapiens, UniProt Q14330); parameters: method as in PMID 22916707; settings: read-out: Human GPR18 IC50; ref [47]; cited from earlier work
T1 construct: β-galactosidase enzyme fragment (PathHunter complementation tag)
T1 sequence (Q14330 1-331): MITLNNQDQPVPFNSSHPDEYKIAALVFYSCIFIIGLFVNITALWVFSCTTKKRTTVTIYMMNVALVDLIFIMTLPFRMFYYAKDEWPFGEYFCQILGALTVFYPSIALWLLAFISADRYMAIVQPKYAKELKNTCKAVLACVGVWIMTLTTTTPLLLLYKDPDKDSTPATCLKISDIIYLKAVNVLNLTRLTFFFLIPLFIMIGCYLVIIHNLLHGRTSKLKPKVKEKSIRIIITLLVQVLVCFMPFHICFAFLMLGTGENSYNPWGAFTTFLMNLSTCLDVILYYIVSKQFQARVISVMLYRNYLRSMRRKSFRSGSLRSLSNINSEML

[2] = biological target: T2, human GPR55 (Homo sapiens, UniProt Q9Y2T6); settings: read-out: Human GPR55 IC50; ref [48]; cited from earlier work
T2 construct: β-galactosidase enzyme fragment (PathHunter complementation tag)
T2 sequence (Q9Y2T6 whole entry, the tested form may be a part): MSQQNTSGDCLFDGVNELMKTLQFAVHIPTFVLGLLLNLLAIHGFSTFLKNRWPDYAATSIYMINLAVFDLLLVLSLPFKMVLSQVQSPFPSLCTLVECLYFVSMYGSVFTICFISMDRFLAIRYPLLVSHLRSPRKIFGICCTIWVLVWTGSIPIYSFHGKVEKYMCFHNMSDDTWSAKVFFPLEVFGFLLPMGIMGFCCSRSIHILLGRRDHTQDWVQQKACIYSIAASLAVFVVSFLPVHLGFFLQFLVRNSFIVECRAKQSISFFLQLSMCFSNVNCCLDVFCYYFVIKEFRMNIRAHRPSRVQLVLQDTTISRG

[3] = biological target: CB1; settings: Fig. 1, standard agonists; ref [14]; cited from earlier work
[4] = biological target: CB2; settings: Fig. 1, standard agonists; ref [14]; cited from earlier work
[5] = biological target: T3, CB2 receptor (Homo sapiens, UniProt P34972); test: biochemical; type: binding; parameters: expressed in transfected cells; host or cells: CHO cells (membrane preparation)
T3 sequence (P34972 whole entry): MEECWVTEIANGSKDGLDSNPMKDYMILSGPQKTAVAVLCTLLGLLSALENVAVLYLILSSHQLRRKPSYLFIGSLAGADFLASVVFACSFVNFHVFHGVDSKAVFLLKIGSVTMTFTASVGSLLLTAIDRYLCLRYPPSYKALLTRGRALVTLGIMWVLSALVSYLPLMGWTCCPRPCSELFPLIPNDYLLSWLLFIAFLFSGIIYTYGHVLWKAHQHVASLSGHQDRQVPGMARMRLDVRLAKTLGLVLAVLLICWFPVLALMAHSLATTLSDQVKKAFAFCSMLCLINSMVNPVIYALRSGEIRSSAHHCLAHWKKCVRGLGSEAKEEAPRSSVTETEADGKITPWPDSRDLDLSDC

[6] = biological target: Human CB2; settings: cited from earlier work; for Ki: read-out: Ki Human CB2 (literature) (converted)
[7] = biological target: Human CB1; settings: cited from earlier work; for Ki: read-out: Ki Human CB1 (literature) (converted)
[8] = biological target: T4, CB1 receptor (Homo sapiens, UniProt P21554); test: biochemical; type: binding; parameters: expressed in transfected cells; host or cells: CHO cells (membrane preparation); settings: for CB1 selectivity Ki CB2/KiCB1: Table S1, selectivity index from Ki values
T4 sequence (P21554 whole entry): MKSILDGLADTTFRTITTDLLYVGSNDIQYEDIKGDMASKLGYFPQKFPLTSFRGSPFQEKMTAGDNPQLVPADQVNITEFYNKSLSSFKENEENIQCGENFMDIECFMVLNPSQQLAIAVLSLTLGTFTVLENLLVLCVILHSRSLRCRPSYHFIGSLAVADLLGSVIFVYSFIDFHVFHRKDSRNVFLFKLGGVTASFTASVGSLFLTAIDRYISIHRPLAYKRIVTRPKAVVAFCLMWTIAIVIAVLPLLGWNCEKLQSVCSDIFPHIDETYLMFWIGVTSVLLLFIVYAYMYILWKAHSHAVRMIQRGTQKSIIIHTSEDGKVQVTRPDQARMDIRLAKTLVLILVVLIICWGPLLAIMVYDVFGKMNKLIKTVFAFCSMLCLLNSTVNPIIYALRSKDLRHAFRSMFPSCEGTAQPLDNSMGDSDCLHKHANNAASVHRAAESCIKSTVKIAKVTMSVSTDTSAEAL

[9] = biological target: T1, human GPR18; test: β-Arrestin recruitment assay (PathHunter) at GPR18; type: cell-based; settings: for Human GPR18 % activation: percent in brackets beside EC50 >10 µM; for Human GPR18 % inhibition: percent in brackets beside IC50
Description: (§1) Recruitment of β-arrestin to the respective receptor was detected by using β-galactosidase enzyme fragment complementation technology (β-arrestin PathHunter™ assay, DiscoverX, Fremont, CA, USA) as previously described. Data were obtained from three independent experiments, performed in duplicates. Data were analyzed using Graph Pad Prism Version 4.02 (San Diego, CA, USA).

[10] = biological target: T2, human GPR55; test: β-Arrestin recruitment assay (PathHunter) at GPR55; type: cell-based; settings: for Human GPR55 % activation: percent in brackets beside EC50 >10 µM; for Human GPR55 % inhibition: percent in brackets beside IC50
Description: as §1

[11] = tested on: Human CB2; settings: read-out: EC50 Human CB2 (literature, functional assay) (converted), cited from earlier work
[12] = tested on: Human CB1; settings: read-out: EC50 Human CB1 (literature, functional assay) (converted), cited from earlier work
[13] = biological target: T3, CB2 receptor; test: cAMP accumulation assay in CHO cells expressing CB2; type: cell-based; parameters: expressed in transfected cells; host or cells: CHO cells; settings: for efficacy at CB2 receptor (in words): cAMP accumulation, forskolin 10 µM, test concentration 1 µM or 10 µM, normalized to CP55,940
[14] = biological target: T4, CB1 receptor; test: cell-based; type: cell-based; parameters: expressed in transfected cells; host or cells: CHO cells
[15] = versus 0.1 nM [3H]CP55,940, CHO cell membranes, mean ± SEM of three to five experiments, read-out: Ki ± SEM Human CB2
[16] = versus 0.1 nM [3H]CP55,940, CHO cell membranes, mean ± SEM of three to five experiments, read-out: Ki ± SEM Human CB1
[17] = Human GPR55 IC50, β-arrestin assay, antagonist mode
[18] = cAMP accumulation, forskolin 10 µM, test concentration 1 µM or 10 µM, normalized to CP55,940
[19] = Table S1, selectivity index from Ki values

| Structure (SMILES) | Ki [5, 15] [nM] | Ki [8, 16] [nM] | EC50 [9] [nM] | IC50 [9] [nM] | Human GPR18 % activation ([9]; β-arrestin assay) [%] | Human GPR18 % inhibition ([9]; β-arrestin assay) [%] | EC50 [10] [nM] | IC50 [10, 17] [nM] | Human GPR55 % activation ([10]; β-arrestin assay) [%] | Human GPR55 % inhibition ([10]; β-arrestin assay) [%] | CB2 selectivity Ki CB1/KiCB2 [5, 19] | other results |
| --- | --- | --- | --- | --- | --- | --- | --- | --- | --- | --- | --- | --- |
| CCCCCCC(C)(C)c1ccc([C@@H]2CC(O)CC[C@H]2CCCO)c(O)c1 (single isomer, unassigned; (-)) [Compound 2, (−)-cis-3-[2-hydroxy-4-(1,1-dimethylheptyl)phenyl]-trans-4-(3-hydroxypropyl)cyclohexanol] | – | – | – | – | – | – | – | – | – | – | – | IC50 [1]: 5990 nM; IC50 [2]: 1610 nM |
| CCCCCn1cc(C(=O)c2cccc3ccccc23)c2ccccc21 [Compound 3, JWH-018] | – | – | – | – | – | – | – | – | – | – | – | Ki [3]: 9 nM; Ki [4]: 2.9 nM |
| CCCCCn1cc(C(=O)Nc2cccc3ccccc23)c2ccccc21 [Compound 4, NNEI] | 21.9 ± 5.5 | 1.82 ± 0.35 | > 10000 | > 10000 | 42 | −15 | > 10000 | > 10000 | 26 | 30 | – | Ki ([6]; ref Blaazer et al. [33]): 100 nM; pKi value at the CB1 receptor ([7]; ref Blaazer et al. [33]): 8.9; Ki ([7]; ref Blaazer et al. [33]): 1.25 nM; CB1 selectivity Ki CB2/KiCB1 [8]: 12.0 |
| O=C(Oc1cccc2ccccc12)c1nn(CCCCCF)c2ccccc12 [Compound 23, 5F-SDB-005] | 3.41 ± 1.34 | 2.58 ± 1.09 | > 10000 | > 10000 | 21 | 24 | > 10000 | > 10000 | 21 | 47 | – | EC50 ([11]; ref Banister et al. [28]): 136 nM; CB1 selectivity Ki CB2/KiCB1 [8]: 1.3; EC50 ([12]; ref Banister et al. [28]): 148 nM |
| CCCCCn1cc(C(=O)Oc2cccc3cccnc23)c2ccccc21 [Compound 24, PB-22] | 0.433 ± 0.106 | 0.318 ± 0.071 | > 10000 | > 10000 | −18 | 26 | > 10000 | > 10000 | 15 | -12 | – | EC50 ([11]; ref Banister et al. [28]): 2.8 nM; efficacy at CB2 receptor (in words) [13]: partial agonist with similar efficacy as Δ^9-THC; CB1 selectivity Ki CB2/KiCB1 [8]: 1.4; EC50 ([12]; ref Banister et al. [28]): 5.1 nM; efficacy at CB1 receptor (in words) [14, 18]: partial agonist with similar efficacy as Δ^9-THC |
| CCCCCn1cc(C(=O)C23CC4CC(CC(C4)C2)C3)c2ccccc21 [Compound 35, AB001] | 1.72 ± 0.15 | 33 ± 7.42 | > 10000 | ~10000 | −12 | 62 | > 10000 | ~10000 | −14 | 56 | 19.2 | EC50 ([11]; ref Banister et al. [46]): 45 nM; EC50 ([12]; ref Banister et al. [46]): 35 nM |
| CCCCCn1cc(C(=O)C2C(C)(C)C2(C)C)c2ccccc21 [Compound 37, UR-144] | 1.49 ± 0.25 | 55.9 ± 6.5 | > 10000 | > 10000 | 17 | 14 | > 10000 | 6700 ± 1650 | −5 | – | 37.5 | Ki ([6]; ref Frost et al. [40]): 1.8 nM; Ki ([7]; ref Frost et al. [40]): 150 nM |
| CC1(C)C(C(=O)c2cn(CCCC(F)(F)F)c3ccccc23)C1(C)C [Compound 41, XLR-12] | 0.831 ± 0.331 | 43.7 ± 5.9 | > 10000 | > 10000 | 27 | 13 | > 10000 | 4560 ± 1970 | −5 | – | 52.6 | Ki ([6]; ref Frost et al. [40]): 0.09 nM; CB2-selectivity previously reported ([6]; ref [40]): 167 fold; EC50 [13]: 0.391 nM; CB2-selectivity in functional assay (EC50 CB1 vs CB2) ([13]; cAMP accumulation EC50 values): 30 fold; efficacy at CB2 receptor (in words) [13]: lower efficacy than Δ^9-THC; Ki ([7]; ref Frost et al. [40]): 15 nM; efficacy at CB1 receptor (in words) [14, 18]: lower efficacy than Δ^9-THC; EC50 ([14]; full concentration response curve, read-out: CB1: EC50, inhibition of cAMP accumulation): 11.7 ± 6.5 nM |
| CN1CCCCC1Cn1cc(C(=O)C2C(C)(C)C2(C)C)c2ccccc21 (stereo not drawn) [Compound 43, AB005] | – | – | > 10000 | > 10000 | −38 | −2 | > 10000 | > 10000 | 16 | 39 | – | CB2 selectivity Ki CB1/KiCB2 [5]: 57.1; Ki [5]: 1.04 nM; Ki ([6]; ref Frost et al. [40]): 0.48 nM; efficacy at CB2 receptor (in words) [13]: lower efficacy than Δ^9-THC; Ki ([7]; ref Frost et al. [40]): 5.5 nM; Ki [8]: 59.4 nM; efficacy at CB1 receptor (in words) [14]: lower efficacy than Δ^9-THC |
| CC1(C)C(C(=O)c2cn(CCN3CCOCC3)c3ccccc23)C1(C)C [Compound 45, A-796,260] | 8.02 ± 0.77 | – | > 10000 | > 10000 | 20 | −10 | > 10000 | – | −1 | – | – | Ki ([6]; ref Frost et al.[29]): 4.4 nM |
| CC1(C)C(C(=O)c2cn(CC3CCOCC3)c3ccccc23)C1(C)C [Compound 46, A-834,735] | 0.566 ± 0.153 | – | > 10000 | > 10000 | 6 | 6 | > 10000 | – | 8 | – | – | Ki ([6]; ref Frost et al.[29]): 0.21 nM; IC50 ([10]; Human GPR55 IC50 (extrapolated), Extrapolated values, a full curve could not be determined due to limited solubility): 6880 ± 1510 nM |
| COc1cccc2c(C(=O)C3C4(C)CCC(C4)C3(C)C)c(C)n(CCN3CCOCC3)c12 (stereo not drawn) [Compound 48, MN-25] | 2.77 ± 1.59 | 780 ± 66 | – | – | −12 | 30 | – | – | −8 | 47 | 282 | Ki ([6]; ref Wroblenski et al.[39]): 11 nM; Ki ([7]; ref Wroblenski et al.[39]): 245 nM; EC50 ([9]; read-out: Human GPR18 EC50, β-arrestin assay, agonist mode): > 10000 nM; IC50 ([9]; read-out: Human GPR18 IC50, β-arrestin assay, antagonist mode): > 10000 nM; EC50 ([10]; read-out: Human GPR55 EC50, β-arrestin assay, agonist mode): > 10000 nM; IC50 ([10]; read-out: Human GPR55 IC50, β-arrestin assay, antagonist mode): > 10000 nM |
| CCCCCn1cc(C(=O)Nc2ccc3ccccc3c2)c2ccccc21 [non-fluorinated derivative of compound 7, reference compound] | – | – | – | – | – | – | – | – | – | – | – | pKi value at the CB1 receptor ([7]; ref Blaazer et al. [33]): 7.2 |
